Source: PubChem BioAssay AID248 (DTP/NCI, 2004)
Values joined by “and” are separate entries in the source; they are usually repeats but may differ in a detail not shown here. Equal entries are not always repeated. Inconclusive results and toxic doses are left out. Rule as the data show it: active = T/C of 150% or more; inactive = T/C below 125%.

System: L1210 leukemia ip in BDF1 mice, survival T/C
Assay: NCI In Vivo Anticancer Drug Screen. Data for tumor model L1210 Leukemia (intraperitoneal) in B6D2F1 (BDF1) mice
Details: endpoint: mean survival time, higher = longer survival
Procedure, shortened: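 Each compound was tested against a transplantable tumor grown in mice. The endpoint was survival, with treated animals benchmarked against vehicle controls as a simple ratio.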

[1] = dose: 100.0 mg/kg/injection, schedule: Q01DX001 (ip), vehicle: saline
[2] = dose: 100.0 mg/kg/injection, schedule: Q01DX009 (ip), vehicle: saline
[3] = dose: 100.0 mg/kg/injection, schedule: Q04DX003 (ip), vehicle: saline
[4] = dose: 200.0 mg/kg/injection, schedule: Q01DX001 (ip), vehicle: saline
[5] = dose: 200.0 mg/kg/injection, schedule: Q01DX009 (ip), vehicle: saline
[6] = dose: 200.0 mg/kg/injection, schedule: Q04DX003 (ip), vehicle: saline
[7] = dose: 400.0 mg/kg/injection, schedule: Q01DX001 (ip), vehicle: saline
[8] = dose: 400.0 mg/kg/injection, schedule: Q01DX009 (ip), vehicle: saline
[9] = dose: 400.0 mg/kg/injection, schedule: Q04DX003 (ip), vehicle: saline
[10] = dose: 100.0 mg/kg/injection, schedule: Q01DX009 (ip), vehicle: saline with Tween-80
[11] = dose: 100.0 mg/kg/injection, schedule: Q04DX003 (ip), vehicle: saline with Tween-80
[12] = dose: 200.0 mg/kg/injection, schedule: Q01DX009 (ip), vehicle: saline with Tween-80
[13] = dose: 200.0 mg/kg/injection, schedule: Q04DX003 (ip), vehicle: saline with Tween-80
[14] = dose: 400.0 mg/kg/injection, schedule: Q01DX009 (ip), vehicle: saline with Tween-80
[15] = dose: 400.0 mg/kg/injection, schedule: Q04DX003 (ip), vehicle: saline with Tween-80
[16] = dose: 100.0 mg/kg/injection, schedule: Q04DX002 (ip), vehicle: Klucel (hydroxypropylcellulose) (HPC)
[17] = dose: 200.0 mg/kg/injection, schedule: Q04DX002 (ip), vehicle: Klucel (hydroxypropylcellulose) (HPC)
[18] = dose: 400.0 mg/kg/injection, schedule: Q04DX002 (ip), vehicle: Klucel (hydroxypropylcellulose) (HPC)

Measured: T/C

CC(=O)NC(=O)NC(C)=O
inactive: [1] 95 % of control | [2] 100 % of control | [3] 99 % of control | [4] 94 % of control | [5] 105 % of control | [6] 97 % of control | [7] 97 % of control | [8] 95 % of control | [9] 100 % of control

CC1(C)N=C(N)N=C(N)N1c1ccc(OCCOc2ccc(NC(=O)CBr)cc2)cc1
inactive: dose: 120.0 mg/kg/injection, schedule: Q01DX009 (ip), vehicle: saline 124 % of control | dose: 176.0 mg/kg/injection, schedule: Q01DX009 (ip), vehicle: saline 112 % of control | dose: 266.0 mg/kg/injection, schedule: Q01DX009 (ip), vehicle: saline 107 % of control | [8] 98 % of control

C/C(=C/CO)CC/C=C(\C)CC/C=C(\C)CCC1OC1(C)C (stereo not drawn)
inactive: [1] 92 % of control | [4] 96 % of control | [7] 102 % of control

O=C1C(Cl)=C(Nc2ccccc2)C(=O)C(Cl)=C1Nc1ccccc1
inactive: [10] 87 % of control | [11] 88 % of control | [12] 87 % of control | [13] 92 % of control | [14] 94 % of control | [15] 95 % of control

O=C1NC(C(=O)O)CC1O (stereo not drawn)
inactive: dose: 50.0 mg/kg/injection, schedule: Q01DX001 (ip), vehicle: saline 100 % of control | [1] 95 % of control and 97 % of control | [4] 98 % of control and 88 % of control | [7] 97 % of control

Cc1cc(C(=O)CCC(=O)O)c(C)s1
inactive: dose: 100.0 mg/kg/injection, schedule: Q01DX009 (ip), vehicle: gum acacia 97 % of control | dose: 100.0 mg/kg/injection, schedule: Q04DX003 (ip), vehicle: gum acacia 102 % of control | dose: 200.0 mg/kg/injection, schedule: Q01DX009 (ip), vehicle: gum acacia 90 % of control | dose: 200.0 mg/kg/injection, schedule: Q04DX003 (ip), vehicle: gum acacia 96 % of control | dose: 400.0 mg/kg/injection, schedule: Q01DX009 (ip), vehicle: gum acacia 101 % of control | dose: 400.0 mg/kg/injection, schedule: Q04DX003 (ip), vehicle: gum acacia 101 % of control

Cc1ccc([N+](=O)[O-])cc1S(=O)(=O)O
inactive: [2] 95 % of control | [3] 102 % of control | [5] 102 % of control | [6] 102 % of control | [8] 98 % of control | [9] 96 % of control

CC(C)=CCc1c2c(c3occ(-c4ccc(O)cc4)c(=O)c3c1O)C=CC(C)(C)O2
inactive: dose: 100.0 mg/kg/injection, schedule: Q04DX003 (ip), vehicle: Klucel (hydroxypropylcellulose) (HPC) 88 % of control | dose: 400.0 mg/kg/injection, schedule: Q04DX003 (ip), vehicle: Klucel (hydroxypropylcellulose) (HPC) 88 % of control

O=C(Nc1cc(C(F)(F)F)cc(C(F)(F)F)c1)Nc1c(Oc2ccc(Cl)cc2Cl)ccc(Cl)c1S(=O)(=O)O
inactive: dose: 100.0 mg/kg/injection, schedule: Q04DX003 (ip), vehicle: saline sonified 100 % of control | dose: 200.0 mg/kg/injection, schedule: Q04DX003 (ip), vehicle: saline sonified 100 % of control

Cc1cc(OCCOC(=O)Nc2ccc(F)cc2)ccc1Cl
inactive: dose: 100.0 mg/kg/injection, schedule: Q01DX009 (ip), vehicle: Klucel (hydroxypropylcellulose) (HPC) 106 % of control | dose: 200.0 mg/kg/injection, schedule: Q01DX009 (ip), vehicle: Klucel (hydroxypropylcellulose) (HPC) 101 % of control | dose: 400.0 mg/kg/injection, schedule: Q01DX009 (ip), vehicle: Klucel (hydroxypropylcellulose) (HPC) 101 % of control

CN(CC(=O)C(C(N)=O)c1ccccc1)c1ccccc1 (stereo not drawn)
inactive: dose: 50.0 mg/kg/injection, schedule: Q01DX001 (ip), vehicle: carboxymethylcellulose (CMC) 96 % of control | dose: 100.0 mg/kg/injection, schedule: Q01DX001 (ip), vehicle: carboxymethylcellulose (CMC) 93 % of control | dose: 200.0 mg/kg/injection, schedule: Q01DX001 (ip), vehicle: carboxymethylcellulose (CMC) 93 % of control | dose: 400.0 mg/kg/injection, schedule: Q01DX001 (ip), vehicle: carboxymethylcellulose (CMC) 102 % of control

CCOC(=O)C(=CNc1cc(N)nc(SC)n1)C(=O)OCC
inactive: [16] 114 % of control | [17] 103 % of control | [18] 100 % of control

CCC(=O)c1ccc2c(c1)N(CCCN1CCN(CCO)CC1)c1ccccc1S2
inactive: dose: 1.56 mg/kg/injection, schedule: Q03HX024 (ip), vehicle: saline 114 % of control | dose: 3.12 mg/kg/injection, schedule: Q03HX024 (ip), vehicle: saline 101 % of control | dose: 4.0 mg/kg/injection, schedule: Q01DX009 (ip), vehicle: saline 101 % of control | dose: 6.25 mg/kg/injection, schedule: Q01DX009 (ip), vehicle: saline 104 % of control | dose: 6.25 mg/kg/injection, schedule: Q03HX024 (ip), vehicle: saline 110 % of control | dose: 6.25 mg/kg/injection, schedule: Q04DX003 (ip), vehicle: saline 113 % of control | dose: 8.0 mg/kg/injection, schedule: Q01DX009 (ip), vehicle: saline 105 % of control | dose: 12.5 mg/kg/injection, schedule: Q04DX003 (ip), vehicle: saline 93 % of control | dose: 18.75 mg/kg/injection, schedule: Q01DX001 (ip), vehicle: saline 110 % of control | dose: 25.0 mg/kg/injection, schedule: Q04DX003 (ip), vehicle: saline 98 % of control | dose: 32.0 mg/kg/injection, schedule: Q01DX009 (ip), vehicle: saline 90 % of control | dose: 37.5 mg/kg/injection, schedule: Q01DX001 (ip), vehicle: saline 103 % of control | dose: 50.0 mg/kg/injection, schedule: Q04DX003 (ip), vehicle: saline 95 % of control | dose: 75.0 mg/kg/injection, schedule: Q01DX001 (ip), vehicle: saline 119 % of control | [3] 115 % of control

C=CCCCCCCCCC(=O)NCc1cccnc1
inactive: [10] 96 % of control | [12] 94 % of control | [14] 102 % of control

N=C(N)SCCN1C(=O)c2ccccc2C1=O
inactive: [11] 103 % of control

Cc1cc(C)c2c(c1)C(=O)C(=O)c1cc(C)cc(C)c1-2
inactive: dose: 50.0 mg/kg/injection, schedule: Q04DX002 (ip), vehicle: Klucel (hydroxypropylcellulose) (HPC) 95 % of control | [16] 94 % of control and 92 % of control | [17] 98 % of control | [18] 116 % of control and 88 % of control

CCCCCCCCCC(=O)N/N=C/c1cccc([N+](=O)[O-])c1
inactive: [10] 97 % of control | [12] 91 % of control | [14] 100 % of control

c1nc2c([nH]1)CNCC2
inactive: [2] 94 % of control | [3] 100 % of control | [5] 93 % of control | [6] 98 % of control | [8] 94 % of control | [9] 108 % of control

Cc1c(C)c2cccc(C)c2[nH]c1=O
inactive: [1] 95 % of control | [4] 95 % of control | [7] 103 % of control

COC(=O)c1ccccc1C1(c2ccccc2C(=O)OC)OC(=O)c2ccccc21
inactive: [10] 97 % of control | [11] 98 % of control | [12] 101 % of control | [13] 93 % of control | [14] 97 % of control | [15] 96 % of control
